The results in this text go back to ChEMBL document CHEMBL5291721, “A preclinical secondary pharmacology resource illuminates target-adverse drug reaction associations of marketed drugs” (Nat Commun, 2023).

The AC50 is the midpoint of the concentration-response curve, whichever way the signal moves. Low values mean greater potency, high ones weaker potency.

One experiment concerns the target T1, Adenosine receptor A3 (Homo sapiens, UniProt P0DMS8).
T1 sequence (P0DMS8 whole entry): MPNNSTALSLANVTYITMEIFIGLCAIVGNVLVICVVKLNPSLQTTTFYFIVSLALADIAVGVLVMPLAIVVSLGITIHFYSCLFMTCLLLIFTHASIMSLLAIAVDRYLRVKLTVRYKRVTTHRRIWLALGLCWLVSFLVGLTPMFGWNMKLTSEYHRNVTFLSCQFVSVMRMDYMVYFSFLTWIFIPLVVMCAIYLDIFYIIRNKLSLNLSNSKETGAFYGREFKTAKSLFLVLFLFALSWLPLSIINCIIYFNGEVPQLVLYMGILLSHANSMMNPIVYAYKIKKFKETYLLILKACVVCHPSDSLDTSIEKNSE

Experiment [1] addresses T2, Thromboxane A2 receptor (Homo sapiens, UniProt P21731).
T2 sequence (P21731 whole entry): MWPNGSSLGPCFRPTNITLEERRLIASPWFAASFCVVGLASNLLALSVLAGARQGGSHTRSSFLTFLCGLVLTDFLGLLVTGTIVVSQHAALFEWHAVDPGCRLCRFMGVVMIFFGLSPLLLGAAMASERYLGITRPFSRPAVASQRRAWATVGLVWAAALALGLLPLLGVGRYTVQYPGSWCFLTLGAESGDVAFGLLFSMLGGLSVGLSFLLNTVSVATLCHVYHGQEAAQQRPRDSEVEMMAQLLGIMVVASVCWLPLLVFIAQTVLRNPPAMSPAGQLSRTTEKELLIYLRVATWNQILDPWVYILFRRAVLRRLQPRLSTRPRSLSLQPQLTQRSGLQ
The class given is functional, cell-based.

A further experiment addresses Acetylcholinesterase (Homo sapiens, UniProt P22303). Type of experiment: functional.
Experiment [2] has as its target Gamma-aminobutyric acid receptor subunit alpha-1 (Rattus norvegicus, UniProt P62813).
Experiment [3] concerns the target Muscarinic acetylcholine receptor M3 (Homo sapiens, UniProt P20309).
In experiment [4] the target is T3, 5-hydroxytryptamine receptor 1A (Homo sapiens, UniProt P08908).
T3 sequence (P08908 whole entry): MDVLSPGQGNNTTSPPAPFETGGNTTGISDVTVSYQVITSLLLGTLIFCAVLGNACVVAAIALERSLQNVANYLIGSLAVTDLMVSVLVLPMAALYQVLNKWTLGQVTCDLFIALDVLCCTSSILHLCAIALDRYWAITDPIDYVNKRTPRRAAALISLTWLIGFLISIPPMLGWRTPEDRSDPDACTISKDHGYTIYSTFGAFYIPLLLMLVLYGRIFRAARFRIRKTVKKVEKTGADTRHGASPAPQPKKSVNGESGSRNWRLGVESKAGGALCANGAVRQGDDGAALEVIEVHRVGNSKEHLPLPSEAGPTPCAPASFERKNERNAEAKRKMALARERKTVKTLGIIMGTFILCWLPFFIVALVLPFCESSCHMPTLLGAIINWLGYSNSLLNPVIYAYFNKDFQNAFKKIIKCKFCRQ
Type of experiment: functional, cell-based.

The target in experiment [5] is T2, Thromboxane A2 receptor.
For experiment [6], the target named is T4, Alpha-2B adrenergic receptor (Homo sapiens, UniProt P18089).
T4 sequence (P18089 whole entry): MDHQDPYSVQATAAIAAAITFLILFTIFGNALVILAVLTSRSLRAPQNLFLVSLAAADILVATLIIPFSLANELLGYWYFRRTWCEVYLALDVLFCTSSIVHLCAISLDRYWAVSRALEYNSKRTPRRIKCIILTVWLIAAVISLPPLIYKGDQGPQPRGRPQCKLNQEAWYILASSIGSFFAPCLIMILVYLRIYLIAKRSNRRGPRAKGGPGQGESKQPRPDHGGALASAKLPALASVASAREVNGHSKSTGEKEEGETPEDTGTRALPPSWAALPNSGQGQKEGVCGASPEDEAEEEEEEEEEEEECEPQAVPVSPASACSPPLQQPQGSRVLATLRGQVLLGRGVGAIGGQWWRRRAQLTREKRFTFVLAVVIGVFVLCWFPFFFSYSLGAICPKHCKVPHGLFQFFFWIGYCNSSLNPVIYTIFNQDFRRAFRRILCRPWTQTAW

Experiment [7] deals with T5, Muscarinic acetylcholine receptor M2 (Homo sapiens, UniProt P08172).
T5 sequence (P08172 whole entry): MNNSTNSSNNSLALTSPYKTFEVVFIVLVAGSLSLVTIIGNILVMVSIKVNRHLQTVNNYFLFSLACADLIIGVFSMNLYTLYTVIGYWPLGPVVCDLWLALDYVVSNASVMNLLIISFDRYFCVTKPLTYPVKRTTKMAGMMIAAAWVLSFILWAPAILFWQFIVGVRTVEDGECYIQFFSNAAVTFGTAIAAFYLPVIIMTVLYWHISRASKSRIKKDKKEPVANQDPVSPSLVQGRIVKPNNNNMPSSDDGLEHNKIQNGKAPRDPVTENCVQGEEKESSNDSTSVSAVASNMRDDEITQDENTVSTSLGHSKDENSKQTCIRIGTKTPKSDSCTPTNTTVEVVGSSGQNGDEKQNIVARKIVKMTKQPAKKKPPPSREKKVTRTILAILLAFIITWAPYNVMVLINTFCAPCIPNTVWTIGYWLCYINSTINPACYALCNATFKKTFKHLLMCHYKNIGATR
The class given is functional, cell-based.

Experiment [8] concerns the target T6, Alpha-1A adrenergic receptor (Homo sapiens, UniProt P35348).
T6 sequence (P35348 whole entry): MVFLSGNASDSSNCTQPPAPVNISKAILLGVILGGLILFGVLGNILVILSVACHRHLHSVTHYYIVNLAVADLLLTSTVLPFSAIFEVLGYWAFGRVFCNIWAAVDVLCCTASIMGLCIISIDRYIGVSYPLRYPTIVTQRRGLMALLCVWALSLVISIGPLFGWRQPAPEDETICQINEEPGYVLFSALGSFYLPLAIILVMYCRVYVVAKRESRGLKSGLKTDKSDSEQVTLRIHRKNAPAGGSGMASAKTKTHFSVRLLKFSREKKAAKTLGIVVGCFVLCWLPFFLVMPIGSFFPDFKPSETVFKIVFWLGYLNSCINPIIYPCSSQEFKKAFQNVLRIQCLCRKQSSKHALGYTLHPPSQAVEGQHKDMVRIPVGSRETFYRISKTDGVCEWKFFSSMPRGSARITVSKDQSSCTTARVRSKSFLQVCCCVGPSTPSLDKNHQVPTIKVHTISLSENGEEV
The class given is functional, cell-based.

The target of experiment [9] is T6, Alpha-1A adrenergic receptor. The class given is functional, cell-based. The source holds these as a separate data set.
The next experiment addresses Cannabinoid receptor 1 (Homo sapiens, UniProt P21554). The class given is functional, cell-based.
Experiment [10] has as its target Beta-2 adrenergic receptor (Homo sapiens, UniProt P07550). The class given is functional, cell-based.
Also: assay procedure not described here.

Sequence of Beta-2 adrenergic receptor (P07550 whole entry): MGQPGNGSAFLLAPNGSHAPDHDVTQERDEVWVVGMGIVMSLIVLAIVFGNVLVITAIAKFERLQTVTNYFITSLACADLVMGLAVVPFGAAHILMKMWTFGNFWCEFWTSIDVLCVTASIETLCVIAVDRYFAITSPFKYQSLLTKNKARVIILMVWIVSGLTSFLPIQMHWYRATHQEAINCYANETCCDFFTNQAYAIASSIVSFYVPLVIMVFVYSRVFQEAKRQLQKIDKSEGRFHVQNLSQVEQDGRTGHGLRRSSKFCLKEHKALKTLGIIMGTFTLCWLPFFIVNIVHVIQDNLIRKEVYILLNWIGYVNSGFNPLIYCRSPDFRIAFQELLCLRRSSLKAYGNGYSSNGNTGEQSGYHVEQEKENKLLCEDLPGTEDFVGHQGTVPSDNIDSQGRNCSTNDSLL
Sequence of Acetylcholinesterase (P22303 whole entry): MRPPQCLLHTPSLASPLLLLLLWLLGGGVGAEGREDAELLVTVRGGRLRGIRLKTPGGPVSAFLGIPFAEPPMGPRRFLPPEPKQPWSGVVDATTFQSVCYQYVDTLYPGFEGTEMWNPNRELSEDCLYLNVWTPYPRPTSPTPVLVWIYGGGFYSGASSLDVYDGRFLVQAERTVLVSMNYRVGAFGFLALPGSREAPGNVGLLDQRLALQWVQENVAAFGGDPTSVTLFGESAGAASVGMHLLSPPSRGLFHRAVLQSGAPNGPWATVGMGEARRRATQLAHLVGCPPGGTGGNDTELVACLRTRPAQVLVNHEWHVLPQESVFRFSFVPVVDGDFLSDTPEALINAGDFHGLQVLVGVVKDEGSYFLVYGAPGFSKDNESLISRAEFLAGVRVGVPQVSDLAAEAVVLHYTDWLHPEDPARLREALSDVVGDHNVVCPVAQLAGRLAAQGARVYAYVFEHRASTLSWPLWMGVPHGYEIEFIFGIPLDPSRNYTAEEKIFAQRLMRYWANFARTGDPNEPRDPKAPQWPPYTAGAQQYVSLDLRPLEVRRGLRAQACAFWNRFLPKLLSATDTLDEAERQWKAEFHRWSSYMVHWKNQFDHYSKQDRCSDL
Sequence of Gamma-aminobutyric acid receptor subunit alpha-1 (P62813 whole entry): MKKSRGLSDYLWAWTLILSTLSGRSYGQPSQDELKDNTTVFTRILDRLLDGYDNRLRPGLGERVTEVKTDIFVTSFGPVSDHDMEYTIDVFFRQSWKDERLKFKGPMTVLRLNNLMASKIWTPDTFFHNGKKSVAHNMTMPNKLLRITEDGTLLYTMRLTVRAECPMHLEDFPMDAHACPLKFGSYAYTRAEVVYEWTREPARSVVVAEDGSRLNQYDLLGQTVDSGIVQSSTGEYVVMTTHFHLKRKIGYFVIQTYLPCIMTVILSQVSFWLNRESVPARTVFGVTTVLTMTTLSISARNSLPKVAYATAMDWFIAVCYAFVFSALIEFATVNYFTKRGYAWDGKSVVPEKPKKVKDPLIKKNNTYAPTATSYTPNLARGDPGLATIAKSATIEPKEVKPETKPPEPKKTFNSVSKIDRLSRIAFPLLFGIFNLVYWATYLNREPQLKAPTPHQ
Sequence of Cannabinoid receptor 1 (P21554 whole entry): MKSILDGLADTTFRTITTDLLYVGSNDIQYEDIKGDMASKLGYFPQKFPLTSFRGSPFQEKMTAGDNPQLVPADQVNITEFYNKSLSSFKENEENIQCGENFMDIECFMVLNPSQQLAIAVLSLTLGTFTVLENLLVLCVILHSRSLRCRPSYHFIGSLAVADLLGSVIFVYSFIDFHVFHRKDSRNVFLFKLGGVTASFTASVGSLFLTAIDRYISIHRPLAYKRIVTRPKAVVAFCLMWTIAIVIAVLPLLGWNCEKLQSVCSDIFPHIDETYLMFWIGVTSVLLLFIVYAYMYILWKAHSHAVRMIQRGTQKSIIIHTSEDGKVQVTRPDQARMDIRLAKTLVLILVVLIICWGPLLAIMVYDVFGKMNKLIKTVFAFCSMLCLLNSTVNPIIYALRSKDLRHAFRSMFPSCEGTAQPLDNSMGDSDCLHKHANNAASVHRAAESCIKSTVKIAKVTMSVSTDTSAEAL
Sequence of Muscarinic acetylcholine receptor M3 (P20309 whole entry): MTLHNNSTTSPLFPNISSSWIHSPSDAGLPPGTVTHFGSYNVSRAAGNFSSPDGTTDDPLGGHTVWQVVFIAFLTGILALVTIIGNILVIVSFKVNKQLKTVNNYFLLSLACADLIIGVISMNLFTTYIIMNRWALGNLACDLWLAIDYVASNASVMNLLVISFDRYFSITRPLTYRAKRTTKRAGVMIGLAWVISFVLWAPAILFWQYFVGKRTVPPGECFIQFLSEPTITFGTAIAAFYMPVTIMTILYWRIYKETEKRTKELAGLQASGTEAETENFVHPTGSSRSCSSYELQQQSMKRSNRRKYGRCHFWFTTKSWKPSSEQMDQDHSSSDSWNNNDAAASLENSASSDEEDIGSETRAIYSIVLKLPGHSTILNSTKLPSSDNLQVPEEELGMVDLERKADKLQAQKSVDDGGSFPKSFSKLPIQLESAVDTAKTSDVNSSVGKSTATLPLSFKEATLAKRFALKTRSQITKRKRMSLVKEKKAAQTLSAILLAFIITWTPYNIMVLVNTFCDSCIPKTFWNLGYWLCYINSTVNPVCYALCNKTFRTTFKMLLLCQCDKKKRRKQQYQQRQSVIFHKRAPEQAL

Turning to `O=NN(CCCl)C(=O)NC1CCCCC1` [LOMUSTINE], the AC50 at Adenosine receptor A3, on Thromboxane A2 receptor [1] and at Acetylcholinesterase was > 30 µM in each case.
In the case of `N=C(N)NCC1COc2ccccc2O1` (stereo not drawn) [GUANOXAN], the AC50 is > 30 µM on Adenosine receptor A3, 19.9 µM at Thromboxane A2 receptor [1] and > 30 µM at Acetylcholinesterase.
Regarding `CN(C)CCN(Cc1ccccc1)c1ccccn1` [TRIPELENNAMINE], the AC50 in experiment [2] is > 10 µM; on Adenosine receptor A3, > 30 µM; at Thromboxane A2 receptor [1], > 30 µM; in experiment [3] it was > 30 µM; in experiment [4] it was > 10 µM; at Thromboxane A2 receptor [5], > 10 µM. The AC50 was > 30 µM on Acetylcholinesterase, 11 µM in experiment [6] and > 10 µM in experiment [7].
As to `Cc1cccc(C)c1NC(=O)c1cc(S(N)(=O)=O)c(Cl)cc1O` [XIPAMIDE], the AC50 at Adenosine receptor A3, on Thromboxane A2 receptor [1] and on Acetylcholinesterase was > 30 µM each time.
`C=CCOc1ccc(CC(=O)O)cc1Cl` [ALCLOFENAC]: the AC50 on Adenosine receptor A3, on Thromboxane A2 receptor [1] and at Acetylcholinesterase was > 30 µM in each case.
`OC[C@H]1NC[C@H](O)[C@@H](O)[C@H]1O`: the AC50 on Adenosine receptor A3, on Thromboxane A2 receptor [1] and at Acetylcholinesterase was > 30 µM throughout.
As for `O=P1(N(CCCl)CCCl)NCCCO1` (stereo not drawn) [CYCLOPHOSPHAMIDE ANHYDROUS], the AC50 at Adenosine receptor A3, on Thromboxane A2 receptor [1] and on Acetylcholinesterase was > 30 µM throughout.
Regarding `CN(C)CCC=C1c2ccccc2CCc2ccccc21` [AMITRIPTYLINE], the AC50 is > 10 µM in [2]; > 30 µM at Adenosine receptor A3; > 30 µM in [8]; 0.12 µM in experiment [9]; 26.3 µM on Thromboxane A2 receptor [1]; > 30 µM on Thromboxane A2 receptor [5]. Besides, the AC50 on Acetylcholinesterase and on Cannabinoid receptor 1 was > 30 µM each time.
Consider `N#Cc1ccnc(N2C(=O)CC[C@H]2C(=O)N(c2cncc(F)c2)[C@H](C(=O)NC2CC(F)(F)C2)c2ccccc2Cl)c1` [IVOSIDENIB], for which the AC50 on Adenosine receptor A3, on Thromboxane A2 receptor [1] and on Acetylcholinesterase was > 30 µM in each case.
On to `CC(C)(Oc1ccc(Cl)cc1)C(=O)NC(=O)NCN1CCOCC1` [PLAFIBRIDE], for which the AC50 on Adenosine receptor A3, on Thromboxane A2 receptor [1] and on Acetylcholinesterase was > 30 µM each time.
As to `CCCCCCO[C@@H](C)c1cccc(-c2csc(NC(=O)c3cc(Cl)c(/C=C(\C)C(=O)O)c(Cl)c3)n2)c1OC` [LUSUTROMBOPAG], the AC50 was 0.334 µM at Adenosine receptor A3, 14.2 µM at Thromboxane A2 receptor [1] and > 30 µM at Acetylcholinesterase.
Regarding `CNC1(c2ccccc2Cl)CCCCC1=O` (stereo not drawn) [KETAMINE], the AC50 at Adenosine receptor A3, at Thromboxane A2 receptor [1] and at Acetylcholinesterase was > 30 µM throughout.
Regarding `CC1=C(C/C=C(\C)CCC[C@H](C)CCC[C@H](C)CCCC(C)C)C(=O)c2ccccc2C1=O` [PHYTONADIONE], the AC50 at Adenosine receptor A3, on Thromboxane A2 receptor [1] and at Acetylcholinesterase was > 30 µM in each case.
For `NCCCNCCSP(=O)(O)O` [AMIFOSTINE], the AC50 (in experiment [2]; in experiment [8]; in [4]; on Thromboxane A2 receptor [5]; on Cannabinoid receptor 1; in [7]) was > 30 µM each time. For the same compound, the AC50 in experiment [10] was > 30 µM.
Regarding `CC(C)Nc1cccnc1N1CCN(C(=O)c2cc3cc(NS(C)(=O)=O)ccc3[nH]2)CC1` [DELAVIRDINE], the values for the AC50 at Adenosine receptor A3, on Thromboxane A2 receptor [1] and on Acetylcholinesterase were 21.4 µM, 23.2 µM and > 30 µM, respectively.
For `CN1CCC(N(Cc2cccs2)c2ccccc2)CC1` [THENALIDINE] the same measures were > 30 µM, > 30 µM and > 30 µM.
Consider `O=C(O)[C@H](O)[C@@H](O)[C@H](O)[C@H](O)CO` [GLUCONIC ACID], for which the AC50 at Adenosine receptor A3, on Thromboxane A2 receptor [1] and on Acetylcholinesterase was > 30 µM each time.
For the compound `CC(C)NC[C@H](O)COc1ccc(O)cc1` [PRENALTEROL], the AC50 on Adenosine receptor A3, on Thromboxane A2 receptor [1] and on Acetylcholinesterase was > 30 µM throughout.
Turning to `C[C@H](CS)C(=O)N1CCC[C@H]1C(=O)O` [CAPTOPRIL], the AC50 in [2] is > 10 µM; in experiment [8] it was > 30 µM; in experiment [9], > 30 µM; in [7], > 10 µM; in experiment [10], > 30 µM.
As for `Cc1cc(C)cc(OCC2CNC(=O)O2)c1` (stereo not drawn) [METAXALONE], the AC50 at Adenosine receptor A3, on Thromboxane A2 receptor [1] and at Acetylcholinesterase was > 30 µM in each case.
Consider `Cc1ccc(C(C)C)c(O)c1` [THYMOL], for which the AC50 on Adenosine receptor A3, on Thromboxane A2 receptor [1] and on Acetylcholinesterase was > 30 µM each time.
Regarding `C[C@]12CC[C@@H]3c4ccc(OC(=O)N(CCCl)CCCl)cc4CC[C@H]3[C@@H]1CC[C@@H]2OP(=O)(O)O` [ESTRAMUSTINE PHOSPHATE], the AC50 is 7.84 µM at Adenosine receptor A3, > 30 µM on Thromboxane A2 receptor [1] and > 30 µM at Acetylcholinesterase.
For the compound `C[C@@H](CN1CC(=O)NC(=O)C1)N1CC(=O)NC(=O)C1` [DEXRAZOXANE], the AC50 on Adenosine receptor A3, on Thromboxane A2 receptor [1] and at Acetylcholinesterase was > 30 µM throughout.
Consider `Nc1nnc(-c2cccc(Cl)c2Cl)c(N)n1` [LAMOTRIGINE], for which the AC50 in experiment [2] is > 10 µM; in [8] it was > 30 µM; in [9], > 30 µM; in experiment [4], > 10 µM; on Thromboxane A2 receptor [5] it was > 30 µM; in experiment [7] it was > 10 µM. Further, in experiment [10], the AC50 is > 30 µM.
